Laboratory results reported in PMC8515607 (ACS Omega, 2021).
Like-named read-outs stand apart in the source and are kept apart here.

Experiments:
A549 = test: cells; type: cell-based, human; settings: for A549 SI: selectivity index = IC50 BALB/3T3 / IC50 A549
Excerpt: (§1) The A549 and MCF7 cell lines were purchased from the European Collection of Authenticated Cell Cultures (ECACC, Salisbury, U.K., 86012804 and 86012803). The LoVo cell line was purchased from the American Type Culture Collection (CCL-229, ATCC, Manassas, VA), and LoVo/DX by courtesy of Prof. E. Borowski (Technical University of Gdańsk, Gdańsk, Poland). The BALB/3T3 cell line was purchased from the American Type Culture Collection (CCL-163, ATCC, Manassas, VA). All of the cell lines are maintained in the Institute of Immunology and Experimental Therapy (IIET), Wroclaw, Poland.
(§2) A549 cells were cultured in a mixture of OptiMEM and Roswell Park Memorial Institute (RPMI) 1640 (1:1) medium (IIET, Wroclaw, Poland), supplemented with 10% fetal bovine serum HyClone (GE Healthcare) and 2 mM L-glutamine (Sigma-Aldrich, Germany). MCF7 cells were cultured in a mixture of Eagle’s medium (IIET, Wroclaw, Poland), supplemented with 10% fetal bovine serum, 2 mM L-glutamine, and insulin (Sigma-Aldrich, Germany). LoVo and LoVo/DX cells were cultured in F12K medium (Corning), supplemented with 10% fetal bovine serum HyClone (GE Healthcare) and 0.1 μg/mL doxorubicin (Accord) for LoVo/DX. BALB/3T3 fibroblasts were cultured in Dulbecco’s medium (Gibco), supplemented with 10% fetal bovine serum (GE Healthcare) and 2 mM L-glutamine (Sigma-Aldrich, Germany). All culture media contained antibiotics: 100 U/mL penicillin (Polfa-Tarchomin, Poland) and 0.1 mg/mL streptomycin (Sigma-Aldrich, Germany). All cell lines were cultured during entire experiment in humid atmosphere at 37 °C and 5% CO2.
(§3) All cell lines were exposed to each tested agent at different concentrations in the range 100–0.00001 μg/mL for 72 h. The cells were also exposed to the reference drug cisplatin (Teva Pharmaceuticals, Poland) and doxorubicin (Accord Healthcare Limited, U.K.). Additionally, all cell lines were exposed to dimethyl sulfoxide (DMSO) (solvent used for tested compounds) (POCh, Poland) at concentrations corresponding to those present in tested agents dilutions. After 72 h, sulforhodamine B (SRB) assay was performed.[57]
(§4) After 72 h of incubation with the tested compounds, the cells were fixed in situ by gently adding cold 50% trichloroacetic acid (TCA) (POCh, Poland) and were incubated at room temperature for 1 h. Then, the wells were washed four times with water and air-dried. Next, 0.1% solution of sulforhodamine B (Sigma-Aldrich, Germany) in 1% acetic acid (POCh, Poland) was added to each well and the plates were incubated at room temperature for 0.5 h. After incubation time, unbound dye was removed by washing plates four times with 1% acetic acid, whereas stain bound to cells was solubilized with 10 mM Tris base (Sigma-Aldrich, Germany). Absorbance of each solution was read at Synergy H4 Hybrid Multi-Mode Microplate Reader (BioTek Instruments) at the 540 nm wavelength.
(§5) IC50 values were calculated in Excel sheet using formulas adapted by Mateusz Psurski fromCheburator 0.4, Dmitry Nevozhay software (version 1.2.0 software by Dmitry Nevozhay, 2004–2014, http://www.cheburator.nevozhay.com, freely available) for each experiment.[58] Compounds at each concentration were tested in triplicate in a single experiment, and each experiment was repeated at least three times independently.

LoVo/DX = test: cells; type: cell-based, human; settings: for LoVo/DX RI: resistance index = IC50 LoVo/DX / IC50 LoVo; for LoVo/DX SI: selectivity index = IC50 BALB/3T3 / IC50 LoVo/DX
Excerpt: as §1, §2, §3, §4, §5

LoVo = test: cells; type: cell-based, human; settings: for IC50: Homo sapiens, LoVo, 72 h, read-out: LoVo IC50 (nM); for LoVo SI: selectivity index = IC50 BALB/3T3 / IC50 LoVo
Excerpt: as §1, §2, §3, §4, §5

MCF-7 = test: cells; type: cell-based, human; settings: for IC50: Homo sapiens, MCF7, 72 h, read-out: MCF-7 IC50 (nM); for MCF-7 SI: selectivity index = IC50 BALB/3T3 / IC50 MCF-7
Excerpt: as §1, §2, §3, §4, §5

BALB/3T3 = test: In vitro antiproliferative activity, SRB assay, normal fibroblasts BALB/3T3; type: cell-based; settings: Mus musculus, BALB/3T3, normal murine embryonic fibroblasts, 72 h, mean ± SD
Excerpt: as §1, §2, §3, §4, §5

[1] = Homo sapiens, A549, 72 h, read-out: A549 IC50 (nM), 72 h exposure, SRB, mean ± SD
[2] = Homo sapiens, LoVo/DX, 72 h, read-out: LoVo/DX IC50 (nM), 72 h exposure, SRB, mean ± SD

| Structure (SMILES) | IC50 (A549; [1]) [nM] | A549 SI (A549) | IC50 (LoVo/DX; [2]) [nM] | LoVo/DX RI (LoVo/DX) | LoVo/DX SI (LoVo/DX) | IC50 (LoVo) [nM] | LoVo SI (LoVo) | IC50 (MCF-7) [nM] | MCF-7 SI (MCF-7) | IC50 (BALB/3T3) [nM] | IC50 (LoVo/DX; read-out: LoVo/DX IC50, 72 h exposure, SRB, mean ± SD) [nM] | IC50 (A549; read-out: A549 IC50, 72 h exposure, SRB, mean ± SD) [nM] |
| --- | --- | --- | --- | --- | --- | --- | --- | --- | --- | --- | --- | --- |
| CCCc1cn([C@H]2CCc3cc(OC)c(OC)c(OC)c3-c3ccc(NC)c(=O)cc32)nn1 [Compound 6] | 15 ± 3.7 | 1.6 | 85 ± 21 | 6.5 | 0.3 | 13 ± 1.9 | 1.8 | 11 ± 1.2 | 2.2 | 24 ± 9.3 |  |  |
| CCCCCCCCCCCCCCCC(=O)NCc1cn([C@H]2CCc3cc(OC)c(OC)c(OC)c3-c3ccc(NC)c(=O)cc32)nn1 [Compound 30] | 16 ± 7.3 | 18.1 | 7300 ± 1100 | 24 | <0.1 | 300 ± 94 | 1.0 | 9.3 ± 2.4 | 31.2 | 290 ± 49 |  |  |
| CCCCCCCCCCCCCCCC(=O)OCc1cn([C@H]2CCc3cc(OC)c(OC)c(OC)c3-c3ccc(NC)c(=O)cc32)nn1 [Compound 24] | 16 ± 5.2 | 3.4 | 3300 ± 280 | 170 | <0.1 | 19 ± 7 | 2.8 | 11 ± 0.7 | 4.9 | 54 ± 20 |  |  |
| CNc1ccc2c(cc1=O)[C@@H](n1cc(COC(=O)c3ccncc3)nn1)CCc1cc(OC)c(OC)c(OC)c1-2 [Compound 28] | 9.5 ± 2.9 | 1.3 | 1000 ± 94 | 130 | <0.1 | 7.9 ± 3.3 | 1.5 | 3.9 ± 1.1 | 3.1 | 12 ± 1.1 |  |  |
| CNc1ccc2c(cc1=O)[C@@H](n1cc(CNC(=O)C(C)C)nn1)CCc1cc(OC)c(OC)c(OC)c1-2 [Compound 29] | 12 ± 2.4 | 4.0 | 2700 ± 600 | 190 | <0.1 | 14 ± 2.3 | 3.4 | 12 ± 3.2 | 4.0 | 48 ± 14 |  |  |
| CNc1ccc2c(cc1=O)[C@@H](n1cc(CNC(=O)OC(C)(C)C)nn1)CCc1cc(OC)c(OC)c(OC)c1-2 [Compound 41] | 5.4 ± 1.5 | 2.0 | 570 ± 120 | 110 | <0.1 | 5.1 ± 0.3 | 2.2 | 3.2 ± 0.6 | 3.4 | 11 ± 0.8 |  |  |
| CNc1ccc2c(cc1=O)[C@@H](n1cc(-c3ccccc3)nn1)CCc1cc(OC)c(OC)c(OC)c1-2 [Compound 14] | 13 ± 2.6 | 1.5 | < 30 | 2.7 | 0.7 | 10 ± 0.8 | 2.0 | 10 ± 1.8 | 2.0 | 20 ± 7.6 | 27 ± 7.6 |  |
| CNc1ccc2c(cc1=O)[C@@H](n1cc(COC(=O)CCC(F)(F)F)nn1)CCc1cc(OC)c(OC)c(OC)c1-2 [Compound 25] | 1.3 ± 0.2 | 5.2 | 350 ± 56 | 160 | <0.1 | 2.2 ± 1.2 | 3.0 | 1.1 ± 0.4 | 6.1 | 6.7 ± 2.4 |  |  |
| CNc1ccc2c(cc1=O)[C@@H](NC(C)=O)CCc1cc(OC)c(OC)c(OC)c1-2 [Compound 2, 10-N-methylaminocolchicine] | 4.4 ± 0.6 | 1.4 | 230 ± 17 | 43 | <0.1 | 5.4 ± 0.7 | 1.1 | 3.5 ± 0.7 | 1.7 | 6 ± 2.3 |  |  |
| CNc1ccc2c(cc1=O)[C@@H](n1cc(CNC(=O)OCC(Cl)(Cl)Cl)nn1)CCc1cc(OC)c(OC)c(OC)c1-2 [Compound 42] | 1.2 to 1.9 | 1.4 | 470 ± 300 | 120 | <0.1 | 3.8 ± 4.2 | 0.7 | 2.5 ± 1.8 | 1.1 | 2.7 ± 2.4 |  | 1.9 ± 2.9 |
| CCOC(=O)NCc1cn([C@H]2CCc3cc(OC)c(OC)c(OC)c3-c3ccc(NC)c(=O)cc32)nn1 [Compound 38] | 4.8 ± 0.7 | 2.5 | 840 ± 95 | 110 | <0.1 | 7.7 ± 2.9 | 1.6 | 4.2 ± 0.7 | 2.9 | 12 ± 1.6 |  |  |
| CNc1ccc2c(cc1=O)[C@@H](N)CCc1cc(OC)c(OC)c(OC)c1-2 [Compound 3, N-deacetyl-10-methylamino-10-demethoxycolchicine] | 12 ± 2.3 | 1.3 | 55 ± 13 | 6.2 | 0.3 | 8.9 ± 1.4 | 1.8 | 8.1 ± 1.3 | 2.0 | 16 ± 2.1 |  |  |
| CNc1ccc2c(cc1=O)[C@@H](n1cc(CNC(=O)CCNC(=O)OC(C)(C)C)nn1)CCc1cc(OC)c(OC)c(OC)c1-2 [Compound 34] | 26 ± 11 | 10.4 | 17000 ± 1600 | 510 | <0.1 | 33 ± 10 | 8.2 | 10 ± 2.1 | 27.0 | 270 ± 67 |  |  |
| CNc1ccc2c(cc1=O)[C@@H](n1cc(-c3ccc(Cl)cc3)nn1)CCc1cc(OC)c(OC)c(OC)c1-2 [Compound 15] | 39 ± 2.7 | 2.4 | 150 ± 35 | 3.2 | 0.6 | 47 ± 22 | 2.0 | 35 ± 14 | 2.6 | 92 ± 20 |  |  |
| CNc1ccc2c(cc1=O)[C@@H](n1cc(CO)nn1)CCc1cc(OC)c(OC)c(OC)c1-2 [Compound 9] | 12 ± 2.1 | 1.2 | 1500 ± 210 | 140 | <0.1 | 11 ± 5.6 | 1.3 | 6.8 ± 1 | 2.1 | 14 ± 2.1 |  |  |
| CNc1ccc2c(cc1=O)[C@@H](n1cc(CCO)nn1)CCc1cc(OC)c(OC)c(OC)c1-2 [Compound 11] | 14 ± 2 | 1.3 | 1700 ± 290 | 120 | <0.1 | 14 ± 6.5 | 1.3 | 13 ± 1.6 | 1.4 | 18 ± 7.1 |  |  |
| CNc1ccc2c(cc1=O)[C@@H](n1cc(-c3ccccn3)nn1)CCc1cc(OC)c(OC)c(OC)c1-2 [Compound 16] | 35 ± 10 | 1.2 | 210 ± 65 | 7.8 | 0.2 | 27 ± 14 | 1.5 | 28 ± 12 | 1.5 | 41 ± 4 |  |  |
